In this assay the target is T1, Glycogen phosphorylase, muscle form (Oryctolagus cuniculus, UniProt P00489).
T1 sequence (P00489 whole entry): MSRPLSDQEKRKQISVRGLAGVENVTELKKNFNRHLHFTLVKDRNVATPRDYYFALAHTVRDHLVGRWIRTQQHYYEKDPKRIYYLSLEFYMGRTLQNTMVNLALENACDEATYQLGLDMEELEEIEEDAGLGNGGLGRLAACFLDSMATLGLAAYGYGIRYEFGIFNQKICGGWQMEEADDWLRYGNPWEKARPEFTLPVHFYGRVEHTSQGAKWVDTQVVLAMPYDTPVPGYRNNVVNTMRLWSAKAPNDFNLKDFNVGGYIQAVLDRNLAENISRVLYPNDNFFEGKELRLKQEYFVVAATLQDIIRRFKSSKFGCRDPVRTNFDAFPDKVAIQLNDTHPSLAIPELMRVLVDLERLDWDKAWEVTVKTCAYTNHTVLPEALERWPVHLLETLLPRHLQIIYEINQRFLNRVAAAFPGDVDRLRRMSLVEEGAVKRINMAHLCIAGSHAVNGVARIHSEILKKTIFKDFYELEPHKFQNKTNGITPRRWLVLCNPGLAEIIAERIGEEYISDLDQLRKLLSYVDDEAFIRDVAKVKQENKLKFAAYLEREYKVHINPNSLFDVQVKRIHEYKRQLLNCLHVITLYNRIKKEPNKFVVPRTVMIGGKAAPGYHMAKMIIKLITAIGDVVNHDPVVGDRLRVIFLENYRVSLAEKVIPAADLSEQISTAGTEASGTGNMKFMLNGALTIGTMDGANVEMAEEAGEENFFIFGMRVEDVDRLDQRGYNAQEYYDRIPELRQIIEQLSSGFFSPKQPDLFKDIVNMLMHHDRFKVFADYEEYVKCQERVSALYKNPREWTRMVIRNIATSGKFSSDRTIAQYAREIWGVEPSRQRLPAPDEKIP
The assay can be described thus: Competitive inhibition of rabbit muscle glycogen phosphorylase b assessed as inorganic phosphate release using alphaD glucose-1-phosphate as substrate at pH 6.8 by spectrophotometric analysis. Details: species or system Muscle tissue.

Each structure is given as a SMILES string.

Regarding `OC[C@H]1O[C@@H](c2cc(O)cc(Cl)c2O)[C@H](O)[C@@H](O)[C@@H]1O`, the IC50 came out at 95 µM.
Take `OC[C@H]1O[C@@H](c2cc(O)ccc2O)[C@H](O)[C@@H](O)[C@@H]1O`: the half-inhibitory concentration (IC50) stood at 977 µM and the Ki worked out at 900 µM.
For the compound `O=C1C=CC(=O)C([C@@H]2O[C@H](CO)[C@@H](O)[C@H](O)[C@H]2O)=C1`, the inhibition constant Ki was 1300 µM.

The record behind these values is ChEMBL document CHEMBL1817566, “Halogen-substituted (C-β-D-glucopyranosyl)-hydroquinone regioisomers: synthesis, enzymatic evaluation and their binding to glycogen phosphorylase” (Bioorg Med Chem, 2011).
